Measured values from patent US11028084B2, “Selective inhibitors of gentotoxic steress-induced IKK/NF-κB pathways” (Max-Delbrück-Centrum für Molekulare Medizin in der …, priority 2016, dated 2021).

What was measured:
[1] = system: NF-κB target genes NFKBIA, TNFAIP3, CXCL8; test: qRT-PCR of NF-κB target genes after irradiation, U2OS cells; format: cell-based, human; settings: 90 min after irradiation
Description: FIG. 14: (A) U2OS cells were pre-treated with different concentrations of olaparib prior to co-treatment with etoposide. Whole cell lysis was performed after 90 min and cleared lysates were used for WB with indicated antibodies. (B) U2OS cells were pre-treated with DMSO, olaparib or the ATM inhibitor Ku55933 and co-treated with etoposide. Cells were harvested after 45 min and subjected to SDS-PAGE/WB. Membranes were stained with the indicated antibodies. The experiment of (B) was performed simultaneously to the experiments of (A) and (E) to control functionality of olaparib in inhibiting PAR chain formation. (C) Densitometrical analyses of (A) and two further independent experiments done as shown in (A). (D) U2OS cells were pre-treated with the substances as indicated prior to irradiation. After 90 min mRNA was isolated, transcribed into cDNA and was used for expression analyses of the indicated genes using quantitative real-time PCR (qRT-PCR). (E) HepG2 cells were pre-treated with the PARP inhibitors olaparib, 3-AB and EB-47 prior to γ-irradiation. Cells were harvested after 15 and 90 min and subjected to SDS-PAGE/WB. Membranes were stained with the indicated antibodies. Error bars equal SEM.
To quantitate specific mRNA (messenger RNA) species in samples RNA was isolated, RNA concentration was measured and mRNA was transcribed into cDNA. The amount of mRNA transcripts of certain genes within a sample was quantified by employing gene specific primers and using a C-1000 Thermal cycler (Biorad). The expression of genes of interest was normalised against two or three reference genes (HRPT1, RPL_13a and B2M) using the CFX manager software. The fold induction of mRNA was calculated over untreated sample levels by the ΔΔ-Ct method.

[2] = system: NF-κB DNA binding activity; test: NF-κB DNA binding activity (EMSA) after γ-IR or etoposide, U2OS cells; format: cell-based, human
Description: FIG. 3: (A) U2OS cells were pre-treated with increasing concentrations of MW01 in duplicates in a 384 well plate. Then, cells were treated with etoposide, fixed and subjected to IF of p65. Spatial measurement of p65 cytosolic and nuclear localisation was used for calculation of p65 translocation rates. (B) U2OS cells were pre-treated with DMSO, MW01 and irradiated with γ-IR. After 90 min cells were lysed and subjected to SDS-PAGE/WB and EMSA. (C) Cells were pre-treated with different concentrations of MW01 as indicated, treated with γ-IR (C) or etoposide (D) and subjected to WB or EMSA, respectively. LDH in (C) represents the loading control.
Nuclear or whole cell lysates were incubated with a ^32P-labeled NF-κB DNA-[…]
For electrophoresis, a current of 26 mA was applied for 2 h. After drying the gel onto a Whatman paper, signals were visualised on an autoradiography film (GE Healthcare) after overnight incubation at −80° C. in a radiography cassette. All work using radioactive substances were done at a monitored work space suitable for radioactive work.

MEF cells = test: Annexin V staining, flow cytometry, MEF cells; format: cell-based, mouse
Description: (§1) FIG. 16: (A) U2OS cells were pre-treated with DMSO or MW01 and irradiated. Cells were lysed 8 h post γ-IR and were used for western blotting and immunochemical staining. (B) HEK293 cells were pre-treated with DMSO or MW01 and irradiated. After 48 h cells were fixed and stained with crystal violet. Dissolved crystal violet was used for absorbance measurement in a visible light spectrophotometer at a wavelength of 595 nm. (C) HEK293 cells were pre-treated with DMSO or MW01 and irradiated. The percentage of viable cells within the population was calculated by exclusion of annexin V and propidium-iodide positive cells measured by flow cytometry. (D) MEF cells were pre-treated with DMSO or MW01 and irradiated. Cells were used for annexin V staining 24 h and 48 after γ-IR. Percentage of annexin V positive cell population was analysed using a flow cytometer. (E) Experiment done as shown in (D) but with HT1080 cells processed 8 h after irradiation. Statistical significance was calculated using students t-test.
(§2) Cells were washed with ice-cold PBS and detached from growing dishes using Trypsin/EDTA solution. Detached cells were centrifuged at 300×g for 5 min. Detection of early apoptotic cells was performed by staining with annexin V-FITC antibody according to manufacturer's instructions (eBioscience Annexin V-FITC Apoptosis detection Kit). Necroptotic and late apoptotic cells were stained by addition of propidium iodide (final concentration 1 μg/ml) prior to measurements.
The sensitising effect of MW01 on cells was tested in MEF cells with a low irradiation dose of 2 Gy, an amount cells are able to repair. Cells were pre-treated with MW01, irradiated and cells were analysed by annexin V staining 24 or 48 h after irradiation. After 24 h, the treatment of cells with MW01 led to an increase of annexin V positive cells of about 10%. […] Comparing the annexin V positive cells of MW01 treated and MW01/γ-IR co-treated samples, a sensitising effect for low γ-irradiation dose-induced apoptosis of about 12% was found (FIG. 16 D).

ATM = target: T1, ATM (Homo sapiens, UniProt Q13315); test: Enzymatic activity of ATM in γ-irradiated HepG2 cells, WB of ATM and substrate phosphorylation; format: cell-based
T1 construct: endogenous in cells; host or cells: HepG2
Description: FIG. 9: HepG2 cells were pre-incubated with DMSO, MW01 (5 μM) or the ATM inhibitor Ku55933 (10 μM) and irradiated. After 60 min cells were harvested and processed. Immunochemical staining of Western blotting membranes was done using indicated antibodies.

HEK293 cells = test: Percentage of viable cells, annexin V / propidium-iodide exclusion, flow cytometry, HEK293 cells; format: cell-based, human
Description: as §1
as §2, with “Necroptotic and late apoptotic cells were stained by addition of propidium iodide (final concentration 1 μg/ml) prior to measurements.” left out

[3] = HepG2, γ-irradiation, 60 min, MW01 5 μM, Ku55933 10 μM

T1 sequence (Q13315 whole entry): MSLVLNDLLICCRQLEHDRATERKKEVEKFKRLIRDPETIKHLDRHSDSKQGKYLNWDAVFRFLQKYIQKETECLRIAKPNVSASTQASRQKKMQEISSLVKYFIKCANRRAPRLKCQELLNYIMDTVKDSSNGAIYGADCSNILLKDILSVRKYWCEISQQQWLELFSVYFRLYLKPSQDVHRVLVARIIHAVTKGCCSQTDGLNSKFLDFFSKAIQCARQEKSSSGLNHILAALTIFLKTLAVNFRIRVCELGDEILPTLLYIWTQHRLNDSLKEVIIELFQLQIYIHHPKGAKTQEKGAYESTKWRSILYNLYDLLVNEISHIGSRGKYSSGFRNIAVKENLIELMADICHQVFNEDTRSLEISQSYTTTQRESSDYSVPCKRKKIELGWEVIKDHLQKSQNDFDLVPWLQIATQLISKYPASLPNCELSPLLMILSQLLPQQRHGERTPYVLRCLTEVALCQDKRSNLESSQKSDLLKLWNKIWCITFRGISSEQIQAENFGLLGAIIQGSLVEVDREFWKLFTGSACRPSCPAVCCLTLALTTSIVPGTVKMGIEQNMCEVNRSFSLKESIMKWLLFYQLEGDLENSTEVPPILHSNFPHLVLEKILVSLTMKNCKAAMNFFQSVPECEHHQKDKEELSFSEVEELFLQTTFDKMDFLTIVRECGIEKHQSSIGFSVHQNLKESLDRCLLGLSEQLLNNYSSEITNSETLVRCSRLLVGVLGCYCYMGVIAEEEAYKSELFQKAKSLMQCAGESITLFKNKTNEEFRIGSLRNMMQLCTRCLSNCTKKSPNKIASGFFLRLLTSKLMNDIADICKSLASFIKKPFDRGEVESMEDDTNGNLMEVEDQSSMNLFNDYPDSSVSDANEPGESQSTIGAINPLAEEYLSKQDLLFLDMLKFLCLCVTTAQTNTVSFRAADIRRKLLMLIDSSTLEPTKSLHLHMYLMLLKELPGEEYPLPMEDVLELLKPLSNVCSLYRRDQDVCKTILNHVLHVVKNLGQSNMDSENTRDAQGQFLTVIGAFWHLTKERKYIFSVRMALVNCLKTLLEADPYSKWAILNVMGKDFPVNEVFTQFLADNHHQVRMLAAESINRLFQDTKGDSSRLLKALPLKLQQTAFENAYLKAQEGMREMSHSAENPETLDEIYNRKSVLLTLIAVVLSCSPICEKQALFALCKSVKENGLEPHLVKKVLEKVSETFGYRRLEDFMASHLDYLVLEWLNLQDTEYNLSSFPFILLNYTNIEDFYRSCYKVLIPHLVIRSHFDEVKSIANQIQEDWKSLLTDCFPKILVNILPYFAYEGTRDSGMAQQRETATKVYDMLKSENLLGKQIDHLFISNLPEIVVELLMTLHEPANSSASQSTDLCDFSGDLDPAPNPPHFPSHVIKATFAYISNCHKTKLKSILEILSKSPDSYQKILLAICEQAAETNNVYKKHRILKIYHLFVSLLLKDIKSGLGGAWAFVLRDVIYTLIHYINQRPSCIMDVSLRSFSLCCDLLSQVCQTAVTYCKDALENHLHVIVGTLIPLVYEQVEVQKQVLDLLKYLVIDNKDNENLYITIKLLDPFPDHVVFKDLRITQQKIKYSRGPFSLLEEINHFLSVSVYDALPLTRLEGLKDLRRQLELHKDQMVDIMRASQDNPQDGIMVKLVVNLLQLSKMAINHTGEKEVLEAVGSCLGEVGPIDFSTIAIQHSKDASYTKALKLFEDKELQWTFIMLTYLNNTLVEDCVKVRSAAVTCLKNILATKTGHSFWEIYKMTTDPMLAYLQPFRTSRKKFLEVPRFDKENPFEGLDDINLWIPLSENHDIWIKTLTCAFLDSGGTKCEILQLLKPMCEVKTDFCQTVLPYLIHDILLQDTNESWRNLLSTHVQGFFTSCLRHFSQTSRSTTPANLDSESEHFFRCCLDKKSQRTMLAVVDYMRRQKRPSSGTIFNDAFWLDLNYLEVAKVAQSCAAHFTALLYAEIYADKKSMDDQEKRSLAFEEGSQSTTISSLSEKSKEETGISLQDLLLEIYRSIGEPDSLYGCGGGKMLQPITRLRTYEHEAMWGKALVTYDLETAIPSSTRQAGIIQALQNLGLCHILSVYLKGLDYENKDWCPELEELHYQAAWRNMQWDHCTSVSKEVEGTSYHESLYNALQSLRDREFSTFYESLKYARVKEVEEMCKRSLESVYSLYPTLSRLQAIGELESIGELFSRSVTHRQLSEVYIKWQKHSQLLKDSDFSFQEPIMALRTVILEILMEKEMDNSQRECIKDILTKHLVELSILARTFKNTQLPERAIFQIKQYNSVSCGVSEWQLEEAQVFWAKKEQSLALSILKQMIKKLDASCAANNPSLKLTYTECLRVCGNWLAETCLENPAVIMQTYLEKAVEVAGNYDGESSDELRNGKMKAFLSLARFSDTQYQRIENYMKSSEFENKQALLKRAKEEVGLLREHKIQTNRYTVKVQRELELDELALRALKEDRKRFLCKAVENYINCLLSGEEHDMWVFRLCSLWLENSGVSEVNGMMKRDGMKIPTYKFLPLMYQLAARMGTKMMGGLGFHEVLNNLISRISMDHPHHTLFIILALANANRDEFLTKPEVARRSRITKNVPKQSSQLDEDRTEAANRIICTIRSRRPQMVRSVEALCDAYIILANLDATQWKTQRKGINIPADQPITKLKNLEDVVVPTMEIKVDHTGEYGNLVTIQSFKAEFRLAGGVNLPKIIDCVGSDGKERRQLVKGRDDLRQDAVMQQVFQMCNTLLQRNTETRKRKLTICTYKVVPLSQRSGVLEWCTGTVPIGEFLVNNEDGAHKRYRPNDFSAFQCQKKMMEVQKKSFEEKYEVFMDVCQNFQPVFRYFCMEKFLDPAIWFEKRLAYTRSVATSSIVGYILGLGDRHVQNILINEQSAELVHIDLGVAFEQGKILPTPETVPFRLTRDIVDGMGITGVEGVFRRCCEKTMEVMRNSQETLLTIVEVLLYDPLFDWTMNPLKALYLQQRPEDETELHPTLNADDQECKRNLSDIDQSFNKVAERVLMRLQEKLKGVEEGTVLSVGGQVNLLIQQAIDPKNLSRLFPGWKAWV

SMILES: COc1ccc2c(c1OC)c(=O)n1c3ccc(O)cc3c3ccnc2c31 [MW01, 12-hydroxy-6,7-dimethoxy-8H-benzo[c]indolo[3,2,1-ij][1,5]naphthyridin-8-one]
- NFKBIA, TNFAIP3 and CXCL8 mRNA induction upon irradiation [1]: complete inhibition
- etoposide-induced NF-κB DNA binding activity ([2]; etoposide): inhibited by MW01 pre-treatment in a concentration dependent manner
- γ-IR-induced NF-κB DNA binding activity ([2]; γ-IR, 90 min, U2OS): inhibited the γ-IR-induced NF-κB DNA binding activity
- increase of annexin V positive cells (MEF cells; 24 h, without IR): about 10%
- sensitising effect for low γ-irradiation dose-induced apoptosis (MEF cells; MW01 vs MW01/γ-IR co-treated samples): about 12%
- annexin V staining of cells (MEF cells; after 2 Gy of γ-irradiation): circa 34%
- ATM auto-phosphorylation and phosphorylation of the ATM substrates p53 and KAP1 (ATM; [3]): no effects
- phosphorylation state of p53bp1 (ATM; [3]): mild effects
- enzymatic activity of ATM (ATM; conclusion from auto-phosphorylation and substrate phosphorylation): not affected
- less viable cells after irradiation (HEK293 cells; HEK293, after irradiation): ~17%
- percentage of viable cells compared to the DMSO control (HEK293 cells; HEK293, non-irradiated): slightly reduced
